In patent US10682371B2, “Small molecule conjugates specifically activated in tumor microenvironment for targeting and use thereof” (priority 2014, dated 2020):
Where two headings read alike, the source gives them in different places.

How the values were obtained:
[1] = system: tumor CD8+ T cells; format: in vivo, C57 mice; conditions: CD8 positive cells in CD45 positive cells of tumor
Procedure: (§1) 4) Analysis on tumor CD8+ T cells. The tumor tissue was homogenated and individual cells in the tumor were filtered, separated and washed by buffer twice, then cultivated with the leucocyte common antigen CD45-PE and CD8-FITC marked antibodies for 1 hour at ambient temperature. The cells were washed by phosphate buffer containing 1% fetal bovine serum twice and then analyzed for the ratio of the T lymphocyte antigen (CD8) positive cells in the leucocyte common antigen (CD45) positive cells by flow cytometry.
as §1, with “CD45-PE and T-lymphocyte antigen CD8-FITC marked” for “CD45-PE and CD8-FITC marked”, “flow cytometry. Increasement of the ratio indicates increased T lymphocyte cells and thus the animal immunity against the tumor was improved.” for “flow cytometry.”
as §1, with “cytometry. Increasement of the ratio indicates increased T lymphocyte cells and thus the animal immunity against the tumor was improved.” for “cytometry.”

[2] = system: tumor-derived immunosuppressive T cells (T reg: CD4+, CD25+, Foxp3+); CD8 T cells; test: Immunological stimulation test in mice receiving tumor treatment (T reg, CD8 T cells); format: in vivo; conditions: mice receiving tumor treatment
Excerpt: We further studied the immunological stimulation property of Legutaxel. […] On the contrary, the index for tumor-derived immunosuppressive T cells in treatment group by Legutaxel decreased due to targeted chemotherapy (see panels in FIGS. 3A and 3B).

[3] = system: Human prostate cancer PC-3 cells / Panc-1 cells; test: Tumor treatment in nude mice (PC-3 cells purchased, Panc-1 cells injected; Examples 22, 32, 42); format: in vivo; conditions: nude mice, IV once weekly for four weeks, Paclitaxel 8 mg/kg
Procedure: 1) Human prostate cancer PC-3 cells were purchased from American type culture collection (ATCC) and identified according the specification provided by ATCC. Cells were cultivated in DMEM culture solution containing 10% fetal bovine serum at 37° C. and 5% CO2. The cells were passaged for every three days and cells within the 15th passage were used.
2) Production of tumor. 5×10^6Panc-1 cells were subcutaneously injected to the back of the nude mice. Mice were randomly grouped after the tumor reached at least 100 mm^3. Then treatment began and the day on which the treatment began was day 1.
The control group was administered by physiological saline. Drugs were administered once weekly for four weeks.
According to the clinical application of B1, B2, B3 and B4, drugs were intravenously injected (IV). […] The control group was administered by physiological saline. Drugs were administered once weekly for four weeks.

[4] = system: D121 lung tumor cells; format: in vivo, C57 mice; conditions: drugs weekly for 4 weeks
Procedure: 1) D121 lung tumor cells were purchased from ATCC. Cells were cultivated in DMEM culture solution containing 10% fetal bovine serum at 37° C. and 5% CO2. The cells were passaged for every three days and cells within the 15th passage were used.
2) Tumor immunization. 5×10^5 D121 lung cancer cells (purchased from ATCC) which were killed by irradiation were intraperitoneally injected to mice. The mice were injected for 3 times, once every two weeks. After immunization, mice were injected with tumor cells and the drugs were administered weekly for 4 weeks.
3) Production of tumor. At day 32, 10^6 live lung tumor cells were subcutaneously injected to the back of the C57 mice immunized by tumor. Treatment began when the tumor grew to 0.3-0.4 cm.
2) Tumor immunization. 5×10^5 D121 lung cancer cells (purchased from ATCC) which were killed by irradiation were intraperitoneally injected to mice. The mice were injected for 3 times, once every two weeks. After immunization, mice were injected with tumor cells and the drugs were administered weekly for 4 weeks. In table 16 below the immune group was immuned with D121 lung tumor cells and the group without dead D121 lung tumor cells was injected with physiological saline as controls.
3) Production of tumor. After immunization (4 weeks later), 10^6 live lung tumor cells were subcutaneously injected to the back of the C57 mice immunized by tumor. Treatment began when the tumor grew to 0.3-0.4 cm. Tumor size (mm^3) were noted and tumor inhibition rates were calculated.
2) Tumor immunization. 5×10^5 D121 lung cancer cells (purchased from ATCC) which were killed by irradiation were intraperitoneally injected to mice. The mice were injected for 3 times, once every two weeks. After immunization, mice were injected with tumor cells and the drugs were administered weekly for 4 weeks. In the table below the immune group was immuned with D121 lung tumor cells and the group without dead D121 lung tumor cells was injected with physiological saline as controls.
3) Production of tumor. At day 32, 10^6 live D121 lung tumor cells were subcutaneously injected to the back of the C57 mice immunized by tumor. Treatment began when the tumor grew to 0.3-0.4 cm.
1) D121 lung tumor cells were purposed from ATCC. Cells were cultivated in DMEM culture solution containing 10% fetal bovine serum at 37° C. and 5% CO2. The cells were passaged for every three days and cells within the 15th passage were used.

[5] = system: 4T1 cells; test: BALB/C mice model for tumor metastasis (4T1, lung metastases); format: in vivo; conditions: IV every three days for 4 times, Paclitaxel 4 mg/kg
Procedure: 1) 4T1 cells were purchased from American type culture collection (ATCC) and identified according the specification provided by ATCC. Cells were cultivated in DMEM culture solution containing 10% fetal bovine serum at 37° C. and 5% CO2. The cells were passaged for every three days and cells within the 15th passage were used.
2) Production of tumor metastasis. 10^6 […] were subcutaneously injected to the back of the BALB/C mice. Mice were randomly grouped after the tumor grew to about 1.5 cm. The subcutaneous tumor was removed by surgery and drug treatment began. Mice were killed after anesthesia on day 27. The whole lung was taken out and put into Bouin's solution for staining. The number of the tumor metastasized to lung was counted with anatomical microscope.
(§2) The control group was administered by physiological saline. Drugs were administered once for every three days for 4 times.
as §2
According to the clinical application of B1, B2, B3 and B4, drugs were intravenously injected (IV). […] The control group was administered by physiological saline. Drugs were administered once for every three days for 4 times.
According to the clinical application of D1, D2, D3 and D4, drugs were intravenously injected (IV). […] The control group was administered by physiological saline. Drugs were administered once for every three days for 4 times.

[6] = Table 26, A1-A4 24 mg/kg, Day 10
[7] = D121 immunized C57 mice, Day 18 (Example 23)
[8] = 4T1, BALB/C mice, lung, day 27, S1′-S4′ 12 mg/kg
[9] = Table 28, BALB/C mice, 4T1, lung metastases day 27, A1-A4 12 mg/kg

With Paclitaxel [reference compound] the “CD8: CD45 (%)” value ([1]; D121 immunized C57 mice (Example 23)) was 6.6%, the “CD8: CD45 (%)” value ([1]; Table 27, flow cytometry, immunized C57 mice, D121) was 5.7% and the “Index for tumor-derived immunosuppressive T cells (T reg: CD4+, CD25+, Foxp3+)” value [2] was “greatly increased”. For the same substance, the “Size of tumor (mm^3) Day 10” value [3, 6] was 123.04 ± 125.3 mm^3, the “inhibitory rate on tumor Day 10” value [3, 6] was 58.3% and the “Size of tumor (mm^3) Day 24” value ([3]; Table 26, A1-A4 24 mg/kg) was 252.49 ± 248.5 mm^3. The “inhibitory rate on tumor Day 24” value ([3]; Table 26, A1-A4 24 mg/kg) was 33.7%, the “inhibitory rate on tumor Day 10” value ([3]; S1′-S4′ 24 mg/kg, Day 10) was 7.5% and the “Size of tumor (mm^3) Day 24” value ([3]; S1′-S4′ 24 mg/kg) was 249.54 ± 95.46 mm^3. The “inhibitory rate on tumor Day 24” value ([3]; S1′-S4′ 24 mg/kg) was 27.9%, the “Size of tumor (mm^3) Day 18” value [4, 7] was 1210.28 ± 375.46 mm^3 and the “inhibitory rate on tumor % Day 18” value [4, 7] was 23.1%. For the same substance, the “inhibitory rate on tumor % Day 18” value ([4]; Table 27, immunized C57 mice, D121 lung tumor, Day 18) was 20.47%, the “Inhibitory rate on metastasis” value [5, 8] was 5.9% and the “Number of metastasized tumor” value [5, 8] was 128 ± 25. For the same substance, the “Inhibitory rate on metastasis” value [5, 9] was 6.8% and the “Number of metastasized tumor” value [5, 9] was 137 ± 32.
